Read-outs that look alike come from different tables or passages of the source. Each block holds one compound with its values, some of them ahead of it.
Key:
HCT 116 cells [1] = test: Western blot analysis; assay type: cell-based, human
Method: HCT 116 cells were seeded in six‐well plates at 2 × 10^5 cells/well and incubated for 24 houra. […] Cells were harvested and lysed using RIPA buffer. The proteins were separated on an SDS‐PAGE and transferred to PVDF membranes. Then, the membranes were blocked for 1 hour and incubated with primary antibodies overnight at 4°C. The membranes were washed and incubated with secondary antibodies for 1 hour at room temperature. Next, the resultant bands were detected using an Odyssey Infrared Imaging system (LI‐COR, NB, USA). Antibodies against phospho‐RB (Ser780), AKT, phospho‐AKT ([…]), PARP, phospho‐p38 MAPK (Thr180/Tyr182), p38 MAPK, and Bim were purchased from Cell Signaling Technology (Danvers, MA, USA). Antibodies against β‐actin and α‐tubulin were purchased from Sigma‐Aldrich.

CDK4/Cyclin D3 = target: T1, CDK4/Cyclin D3 (Homo sapiens, UniProt P11802); test: off-chip mobility shift assay, CDK4/Cyclin D3; assay type: biochemical
T1 construct: purchased Carna Biosciences
T1 sequence (P11802 whole entry): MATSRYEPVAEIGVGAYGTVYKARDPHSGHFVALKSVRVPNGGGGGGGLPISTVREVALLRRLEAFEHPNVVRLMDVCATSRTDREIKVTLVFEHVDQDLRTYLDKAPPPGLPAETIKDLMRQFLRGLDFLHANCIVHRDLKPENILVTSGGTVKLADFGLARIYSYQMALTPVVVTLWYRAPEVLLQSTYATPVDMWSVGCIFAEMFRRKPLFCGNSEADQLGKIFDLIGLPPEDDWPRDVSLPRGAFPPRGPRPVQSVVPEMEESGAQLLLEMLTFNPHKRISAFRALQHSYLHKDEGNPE
T1 sequence (P30281 whole entry partner): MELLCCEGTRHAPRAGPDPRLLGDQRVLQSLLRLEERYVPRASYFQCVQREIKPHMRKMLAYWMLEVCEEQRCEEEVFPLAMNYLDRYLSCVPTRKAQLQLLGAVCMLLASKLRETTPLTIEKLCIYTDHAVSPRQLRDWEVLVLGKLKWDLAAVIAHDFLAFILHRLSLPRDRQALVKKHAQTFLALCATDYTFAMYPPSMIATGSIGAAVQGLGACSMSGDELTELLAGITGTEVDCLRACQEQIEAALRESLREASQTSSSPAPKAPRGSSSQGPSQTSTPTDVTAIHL
Method: (§1) Cellular kinase activities were evaluated using nonradioisotopic methods such as the off‐chip mobility shift assay or IMAP (Carna Biosciences, Kobe, Japan).11 A kinase inhibition profiling panel was produced on the basis of the kinase inhibition rates. In off‐chip mobility shift assay, compound solution was prepared in assay buffer (20 mmol/L HEPES, 0.01% Triton X‐100, 2 mmol/L DTT, pH 7.5) and incubated in a 384‐well plate at room temperature. The reaction was stopped by adding Termination Buffer (QuickScout Screening Assist MSA; Carna Biosciences, Kobe, Japan). The substrate peptide and the phosphorylated peptide in the reaction solution were separated and quantified by LabChip system (Perkin Elmer, MA, USA). In IMAP assay, compound solution was prepared in assay buffer (20 mmol/L HEPES, 0.01% Tween‐20, 2 mmol/L DTT, pH 7.4) and incubated in a 384‐well black plate at room temperature. IMAP binding reagent (IMAP Screening Express kit; Molecular Devices, CA, USA) was added and incubated for 30 minutes. The kinase reaction was evaluated at the fluorescence polarization.

PIK3CA/PIK3R1 = conditions: cited from earlier work
313 protein kinases = test: kinase panel assay (off-chip mobility shift or IMAP); assay type: biochemical; conditions: 313 kinases; 10 μmol/L printed for siphonodictyal B
Method: as §1

CDK6/Cyclin D3 = target: T2, CDK6/Cyclin D3 (Homo sapiens, UniProt Q00534); test: off-chip mobility shift assay, CDK6/Cyclin D3; assay type: biochemical
T2 construct: purchased Carna Biosciences
T2 sequence (Q00534 whole entry): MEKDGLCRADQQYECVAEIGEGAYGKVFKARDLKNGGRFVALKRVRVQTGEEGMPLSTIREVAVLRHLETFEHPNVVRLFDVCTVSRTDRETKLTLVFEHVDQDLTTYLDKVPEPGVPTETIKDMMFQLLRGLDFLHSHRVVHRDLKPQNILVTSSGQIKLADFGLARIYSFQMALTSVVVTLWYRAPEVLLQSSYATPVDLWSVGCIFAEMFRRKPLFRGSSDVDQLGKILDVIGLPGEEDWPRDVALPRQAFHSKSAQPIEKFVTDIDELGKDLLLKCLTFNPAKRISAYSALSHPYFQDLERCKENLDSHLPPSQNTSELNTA
T2 sequence (P30281 whole entry partner): as the sequence (P30281 whole entry partner) above
Method: as §1

PIM2 = target: T3, PIM2 (Homo sapiens, UniProt Q9P1W9); test: off-chip mobility shift assay, PIM2; assay type: biochemical
T3 construct: purchased Carna Biosciences
T3 sequence (Q9P1W9 whole entry): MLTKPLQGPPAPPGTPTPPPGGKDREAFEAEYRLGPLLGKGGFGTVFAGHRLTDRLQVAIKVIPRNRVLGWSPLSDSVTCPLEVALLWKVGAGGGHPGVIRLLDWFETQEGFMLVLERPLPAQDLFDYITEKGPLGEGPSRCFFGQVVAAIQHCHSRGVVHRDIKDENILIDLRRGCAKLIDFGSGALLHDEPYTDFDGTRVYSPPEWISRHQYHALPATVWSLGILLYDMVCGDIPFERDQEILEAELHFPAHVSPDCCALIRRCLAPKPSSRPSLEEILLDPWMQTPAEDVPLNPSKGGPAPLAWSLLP
Method: as §1

CDK7/Cyclin H/MAT1 = target: T4, CDK7/Cyclin H/MAT1 (Homo sapiens, UniProt P50613); test: off-chip mobility shift assay, CDK7/Cyclin H/MAT1; assay type: biochemical
T4 construct: purchased Carna Biosciences
T4 sequence (P50613 whole entry): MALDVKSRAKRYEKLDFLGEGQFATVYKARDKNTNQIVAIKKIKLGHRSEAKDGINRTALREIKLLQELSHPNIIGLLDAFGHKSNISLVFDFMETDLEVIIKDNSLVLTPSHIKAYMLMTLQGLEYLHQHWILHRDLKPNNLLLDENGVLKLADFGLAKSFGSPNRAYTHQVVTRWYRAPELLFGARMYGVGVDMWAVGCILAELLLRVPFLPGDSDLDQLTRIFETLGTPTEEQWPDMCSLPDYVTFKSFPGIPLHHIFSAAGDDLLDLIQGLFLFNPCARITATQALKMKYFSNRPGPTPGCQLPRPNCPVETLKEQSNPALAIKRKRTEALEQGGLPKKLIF
T4 sequence (P51946 whole entry partner): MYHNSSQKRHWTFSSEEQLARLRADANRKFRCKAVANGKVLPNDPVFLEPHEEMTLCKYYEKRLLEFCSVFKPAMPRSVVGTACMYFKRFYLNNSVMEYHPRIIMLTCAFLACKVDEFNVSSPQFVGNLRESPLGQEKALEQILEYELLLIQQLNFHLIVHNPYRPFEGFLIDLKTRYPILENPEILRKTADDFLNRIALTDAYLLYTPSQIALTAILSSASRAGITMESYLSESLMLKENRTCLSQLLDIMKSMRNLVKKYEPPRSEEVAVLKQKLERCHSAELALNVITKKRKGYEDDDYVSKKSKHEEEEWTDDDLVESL
T4 sequence (P51948 whole entry partner): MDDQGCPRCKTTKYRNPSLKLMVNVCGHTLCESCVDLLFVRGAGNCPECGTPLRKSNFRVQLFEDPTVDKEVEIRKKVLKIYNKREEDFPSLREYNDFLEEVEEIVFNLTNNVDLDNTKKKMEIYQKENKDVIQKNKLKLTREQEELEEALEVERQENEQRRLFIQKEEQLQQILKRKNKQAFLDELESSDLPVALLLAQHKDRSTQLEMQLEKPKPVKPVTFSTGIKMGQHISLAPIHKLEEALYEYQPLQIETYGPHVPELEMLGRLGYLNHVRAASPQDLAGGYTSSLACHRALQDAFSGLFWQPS
Method: as §1

HCT 116 xenograft = test: xenograft mouse model, tumor growth; assay type: in vivo, Balb/c nude mice; conditions: 20 mg/kg intraperitoneally every 3 days
Method: (§2) All animal experiments were performed according to the Regulations for Animal Experiments and Related Activities at Tohoku University. Six‐week‐old female Balb/c nude mice were purchased from Charles River Laboratories (Wilmington, MA, USA). HCT 116 cells (5 × 10^6) were implanted subcutaneously into the right flanks of nude mice. After tumor formation was confirmed, mice were assigned to treatment with 20 mg/kg siphonodictyal B or vehicle (four mice per group) administered intraperitoneally every 3 days. Siphonodictyal B was dissolved in saline with 2.5% CremophorEL® and 2.5% ethanol. Tumor volumes were calculated on the basis of tumor mass using the formula length × width × width/2 (mm^3). The body weights of mice were also measured every 3 days.

HCT 116 cells [2] = test: cell proliferation assay (Cell Counting Kit-8), HCT 116
Method: Cells were seeded in 96‐well plates at 4000 cells/well and incubated for 24 hours, then treated with each concentration of siphonodictyal B. In experiments with SB203580 or NAC, cells were further preincubated for 24 or 1 hour before application of siphonodictyal B, respectively. Cells were incubated with Cell Counting Kit‐8 (Dojindo Molecular Technologies, Kumamoto, Japan) for 1.5 hours. Then, the absorbance of each well was measured using SpectraMaxM2e (Molecular Devices, CA, USA). The ratios of surviving cells to control cells treated with 0.1% DMSO were calculated.

phospho-p38 = test: immunohistochemistry of xenograft tumor tissue; assay type: in vivo, Balb/c nude mice; conditions: 20 mg/kg intraperitoneally every 3 days, after all treatments
Method: as §2
Tumor tissues were collected from mice, fixed in 10% formalin, and embedded in paraffin. Tumor sections on slides were dewaxed, rehydrated, and incubated with a specific antibody against phospho‐p38.

HCT 116 cells [3] = test: ROS detection by DCFDA staining; assay type: cell-based, human; conditions: 2 h
Method: HCT 116 cells were treated with each drug for 2 hours and stained using a DCFDA/H2DCFDA—Cellular Reactive Oxygen Species Detection Assay Kit (Abcam). The measurement was performed using FC‐500.

[4] = read-out: PI3K (p110α/p85α) inhibitory activity IC50
[5] = ref Kikuchi T et al. 2016;2016(34):5659-66, read-out: IC50 PIK3CA/PIK3R1

Structure (SMILES): CS(=O)(=O)N1CCN(Cc2cc3nc(-c4cccc5[nH]ncc45)nc(N4CCOCC4)c3s2)CC1 [GDC0941, reference compound]
AKT phosphorylation (HCT 116 cells [1]; 2 μmol/L GDC0941, 48 h): inhibited

IC50 (CDK4/Cyclin D3): 19.9 µM
inhibition of CDK4, CDK6, CDK7 and PIM-2 in kinase panel (313 protein kinases): strongly inhibited
IC50 (CDK6/Cyclin D3): 6.78 µM
IC50 (PIM2): 5.31 µM
IC50 (CDK7/Cyclin H/MAT1): 1.27 µM
Structure (SMILES): CC1CCC2C(C)(C)CCCC2(C)c2c1oc1c(C=O)c(O)c(O)cc21 (stereo not shown) [Liphagal]
IC50 (PIK3CA/PIK3R1; [4]): 4.1 µM
IC50 (PIK3CA/PIK3R1; [5]): 4.12 µM

Structure (SMILES): CC1CC[C@H]2C(C)(C)CCC[C@]2(C)C1=Cc1cc(O)c(O)c(C=O)c1O (stereo partly shown) [Siphonodictyal B]
PARP cleavage (HCT 116 cells [1]; 1.0 μmol/L, 48 h): induced
p38 phosphorylation (HCT 116 cells [1]; 1.0 μmol/L, 48 h): clearly induced
AKT phosphorylation at Ser473 (HCT 116 cells [1]; 0.1, 0.5 or 1 μmol/L, 48 h): did not inhibit
RB phosphorylation at Ser780 (HCT 116 cells [1]; 0.1, 0.5 or 1 μmol/L, 48 h): did not inhibit
levels of Bim (HCT 116 cells [1]; 0.5 or 1.0 μmol/L, 48 h): increased
phosphorylated p38 on addition of NAC (HCT 116 cells [1]; with NAC, 24 h): reduced
p38 phosphorylation on addition of SB203580 (HCT 116 cells [1]; with SB203580, 48 h): reduced
IC50 (CDK4/Cyclin D3): 32.9 µM
tumor volume vs control group (HCT 116 xenograft): significantly smaller
tumor weight vs control group (HCT 116 xenograft): significantly smaller
IC50 (PIK3CA/PIK3R1; [4]): 2.6 µM
IC50 (PIK3CA/PIK3R1; [5]): 2.62 µM
inhibition of CDK4, CDK6, CDK7 and PIM-2 in kinase panel (313 protein kinases): strongly inhibited
cytotoxic effect (ratio of surviving cells) (HCT 116 cells [2]; HCT 116, 0.01-10 μmol/L, 24 h): more potent cytotoxic effects than liphagal
cytotoxic effect on addition of NAC (HCT 116 cells [2]; HCT 116, with NAC, 24 h): almost completely rescued
cytotoxic effect on addition of SB203580 (HCT 116 cells [2]; HCT 116, with SB203580, 48 h): partially canceled
IC50 (CDK6/Cyclin D3): 69.1 µM
IC50 (PIM2): 6.99 µM
IC50 (CDK7/Cyclin H/MAT1): 13.7 µM
phosphorylated p38 staining in tumor tissue vs control group (phospho-p38): strongly stained
ROS levels vs DMSO (HCT 116 cells [3]): higher
increased ROS production on addition of NAC (HCT 116 cells [3]; with NAC): completely canceled

Structure (SMILES): CC(=O)c1c(C)c2cnc(Nc3ccc(N4CCNCC4)cn3)nc2n(C2CCCC2)c1=O [palbociclib, Palbociclib, reference compound]
RB phosphorylation (HCT 116 cells [1]; 10 μmol/L palbociclib, 48 h): inhibited

From paper PMC6745845, “In Vitro and in Vivo antitumor activity and the mechanism of siphonodictyal B in human colon cancer cells” (Cancer Medicine, 2019)
